Read-outs that look alike come from different tables or passages of the source.
Test system: HCT-15
Experiment: HCT-15 data of payloads and linker-payloads (EC50, with or without verapamil)
Format: cell-based
[1] = Homo sapiens, payload, HCT-15 cells, no verapamil, read-out: HCT-15 EC50
[2] = payload, HCT-15 cells plus verapamil, read-out: HCT-15 + verapamil EC50
[3] = Homo sapiens, linker-payload, HCT-15 cells, read-out: HCT-15 EC50

Compound: CC[C@@]1(O)C(=O)OCc2c1cc1n(c2=O)Cc2c-1nc1ccc(OC)cc1c2Cn1cc(Cc2ccccc2)nn1 [P28, (S)-11-((4-benzyl-1H-1,2,3-triazol-1-yl)methyl)-4-ethyl-4-hydroxy-9-methoxy-1,12-dihydro-14H-pyrano[3′,4′:6,7]indolizino[1,2-b]quinoline-3,14(4H)-dione]
- EC50 [1]: 34.2 nM

Compound: CC[C@@]1(O)C(=O)OCc2c1cc1n(c2=O)Cc2c-1nc1cc(F)c(C)c3c1c2[C@@H](NCCS(C)(=O)=O)CC3 [P7, (10S,23S)-10-ethyl-18-fluoro-10-hydroxy-23-[(2-methanesulfonylethyl)amino]-19-methyl-8-oxa-4,15-diazahexacyclo[[14.7.1.0^2,^14.0^4,^13.0^6,^11.0^20,^24]]tetracosa-1,6(11),12,14,16,18,20(24)-heptaene-5,9-dione]
- EC50 [1]: 5.58 nM
- EC50 [2]: 1.69 nM

Compound: CC[C@@]1(O)C(=O)OCc2c1cc1n(c2=O)Cc2c-1nc1cc(F)c(C)c3c1c2[C@@H](NC(=O)CNC(=O)OCc1ccc(NC(=O)[C@H](CCCNC(N)=O)NC(=O)[C@@H](NC(=O)CCOCCOCCOCCOCCNC(=O)COC2C#CCCCCC2)C(C)C)cc1)CC3 (stereo partly drawn) [LP5, {4-[(2S)-5-(Carbamoylamino)-2-[(2S)-2-{1-[2-(cyclooct-2-yn-1-yloxy)acetamido]-3,6,9,12-tetraoxapentadecan-15-amido}-3-methylbutanamido]pentanamido]phenyl}methyl N-({[(10S,23S)-10-ethyl-18-fluoro-10-hydroxy-19-methyl-5,9-dioxo-8-oxa-4,15-diazahexacyclo[14.7.1.0^2,^14.0^4,^13.0^6,^11.0^20,^24]tetracosa-1,6(11),12,14,16,18,20(24)-heptaen-23-yl]carbamoyl}methyl)carbamate]
- EC50 [3]: > 1000 nM

Compound: CC[C@@]1(O)C(=O)OCc2c1cc1n(c2=O)Cc2c-1nc1ccc(OC)cc1c2CN(C)Cc1ccc(OC)cc1 [P25, (S)-4-ethyl-4-hydroxy-9-methoxy-11-(((4-methoxybenzyl)(methyl)amino)methyl)-1,12-dihydro-14H-pyrano[3′,4′:6,7]indolizino[1,2-b]quinoline-3,14(4H)-dione]
- EC50 [1]: 46.8 nM

Compound: CCc1c2c(nc3ccc(OC)cc13)-c1cc3c(c(=O)n1C2)COC(=O)[C@]3(O)CC [P17, (19S)-10,19-Diethyl-19-hydroxy-7-methoxy-17-oxa-3,13-diazapentacyclo[11.8.0.0^2,^11.0^4,^9.0^15,^20]henicosa-1(21),2,4,6,8,10,15(20)-heptaene-14,18-dione]
- EC50 [1]: 1.59 nM
- EC50 [2]: 1.44 nM

Compound: C#CCNCc1c2c(nc3ccc(OC)cc13)-c1cc3c(c(=O)n1C2)COC(=O)[C@]3(O)CC [P24, (S)-4-ethyl-4-hydroxy-9-methoxy-11-((prop-2-yn-1-ylamino)methyl)-1,12-dihydro-14H-pyrano[3′,4′:6,7]indolizino[1,2-b]quinoline-3,14(4H)-dione]
- EC50 [1]: 13.5 nM

Compound: CC[C@@]1(O)C(=O)OCc2c1cc1n(c2=O)Cc2c-1nc1ccc(OC)cc1c2Cn1nnc2c1CCCCCC2OCC(=O)O (stereo partly drawn) [P27, 2-((1-(((S)-4-ethyl-4-hydroxy-9-methoxy-3,14-dioxo-3,4,12,14-tetrahydro-1H-pyrano[3′,4′:6,7]indolizino[1,2-b]quinolin-11-yl)methyl)-4,5,6,7,8,9-hexahydro-1H-cycloocta[d][1,2,3]triazol-4-yl)oxy)acetic acid]
- EC50 [1]: 78.8 nM

Compound: CC[C@@]1(O)C(=O)OCc2c1cc1n(c2=O)Cc2c-1nc1ccccc1c2CCN(C(C)C)S(C)(=O)=O [P9, N-{2-[(19S)-19-ethyl-19-hydroxy-14,18-dioxo-17-oxa-3,13-diazapentacyclo[11.8.0.0^2,^11.0^4,^9.0^15,^20]henicosa-1(21),2,4,6,8,10,15(20)-heptaen-10-yl]ethyl}-N-(propan-2-yl)methanesulfonamide]
- EC50 [1]: 8.89 nM
- EC50 [2]: 3.03 nM

Compound: CC[C@@]1(O)C(=O)OCc2c1cc1n(c2=O)Cc2c-1nc1cc(F)c(C)c3c1c2[C@@H](NC(=O)[C@H](CCC(=O)O)NC(=O)OCc1ccc(NC(=O)[C@H](CCCNC(N)=O)NC(=O)[C@@H](NC(=O)CCOCCOCCOCCOCCNC(=O)COC2C#CCCCCC2)C(C)C)cc1)CC3 (stereo partly drawn) [LP9, (4S)-4-{[({4-[(2S)-5-(carbamoylamino)-2-[(2S)-2-{1-[2-(cyclooct-2-yn-1-yloxy)acetamido]-3,6,9,12-tetraoxapentadecan-15-amido}-3-methylbutanamido]pentanamido]phenyl}methoxy)carbonyl]amino}-4-{[(10S,23S)-10-ethyl-18-fluoro-10-hydroxy-19-methyl-5,9-dioxo-8-oxa-4,15-diazahexacyclo[14.7.1.0^2,^14.0^4,^13.0^6,^11.0^20,^24]tetracosa-1,6(11),12,14,16,18,20(24)-heptaen-23-yl]carbamoyl}butanoic acid]
- EC50 [3]: 722 nM

Compound: CC[C@@]1(O)C(=O)OCc2c1cc1n(c2=O)Cc2c-1nc1ccc(OC)cc1c2CNCCCN=[N+]=[N-] [P23, (S)-11-(((3-azidopropyl)amino)methyl)-4-ethyl-4-hydroxy-9-methoxy-1,12-dihydro-14H-pyrano[3′,4′:6,7]indolizino[1,2-b]quinoline-3,14(4H)-dione]
- EC50 [1]: 36.7 nM

Compound: CC[C@@]1(O)C(=O)OCc2c1cc1n(c2=O)Cc2c-1nc1cc(F)c(C)c3c1c2[C@@H](NS(C)(=O)=O)CC3 [P6, N-[(10S,23S)-10-ethyl-18-fluoro-10-hydroxy-19-methyl-5,9-dioxo-8-oxa-4,15-diazahexacyclo[[14.7.1.0^2,^14.0^4,^13.0^6,^11.0^20,^24]]tetracosa-1,6(11),12,14,16,18,20(24)-heptaen-23-yl]methanesulfonamide]
- EC50 [1]: 7.45 nM
- EC50 [2]: 3.16 nM

Compound: CC[C@@]1(O)C(=O)OCc2c1cc1n(c2=O)Cc2c-1nc1cc(F)c(C)c3c1c2[C@@H](NC(=O)[C@@H](N)CCC(=O)O)CC3 [P3, (4S)-4-amino-4-{[(10S,23S)-10-ethyl-18-fluoro-10-hydroxy-19-methyl-5,9-dioxo-8-oxa-4,15-diazahexacyclo[[14.7.1.0^2,^14.0^4,^13.0^6,^11.0^20,^24]]tetracosa-1,6(11),12,14,16,18,20(24)-heptaen-23-yl]carbamoyl}butanoic acid]
- EC50 [1]: 610 nM
- EC50 [2]: 596 nM

Compound: CC[C@@]1(O)C(=O)OCc2c1cc1n(c2=O)Cc2c-1nc1cc(F)c(C)c3c1c2[C@@H](NC(=O)OCc1ccc(O[C@@H]2O[C@H](C(=O)O)[C@@H](O)[C@H](O)[C@H]2O)c(C(=O)NCCNC(=O)COC2C#CCCCCC2)c1)CC3 (stereo partly drawn) [LP3, (2S,3S,4S,5R,6S)-6-[2-({2-[2-(Cyclooct-2-yn-1-yloxy)acetamido]ethyl}carbamoyl)-4-[({[(10S,23S)-10-ethyl-18-fluoro-10-hydroxy-19-methyl-5,9-dioxo-8-oxa-4,15-diazahexacyclo[14.7.1.0^2,^14.0^4,^13.0^6,^11.0^20,^24]tetracosa-1,6(11),12,14,16,18,20(24)-heptaen-23-yl]carbamoyl}oxy)methyl]phenoxy]-3,4,5-trihydroxyoxane-2-carboxylic acid]
- EC50 [3]: 457 nM

Compound: CC[C@@]1(O)C(=O)OCc2c1cc1n(c2=O)Cc2c-1nc1cc(F)c(C)c3c1c2[C@@H](NC(=O)[C@@H](N)Cc1ccccc1)CC3 [P5, (2S)-2-amino-N-[(10S,23S)-10-ethyl-18-fluoro-10-hydroxy-19-methyl-5,9-dioxo-8-oxa-4,15-diazahexacyclo[[14.7.1.0^2,^14.0^4,^13.0^6,^11.0^20,^24]]tetracosa-1,6(11),12,14,16,18,20(24)-heptaen-23-yl]-3-phenylpropanamide]
- EC50 [1]: 48.2 nM
- EC50 [2]: 4.2 nM

Compound: CC[C@@]1(O)C(=O)OCc2c1cc1n(c2=O)Cc2c-1nc1ccc(OC)cc1c2CNCc1ccccc1 [P26, (S)-11-((benzylamino)methyl)-4-ethyl-4-hydroxy-9-methoxy-1,12-dihydro-14H-pyrano[3′,4′:6,7]indolizino[1,2-b]quinoline-3,14(4H)-dione]
- EC50 [1]: 51.9 nM

Compound: CC[C@@]1(O)C(=O)OCc2c1cc1n(c2=O)Cc2c-1nc1cc(F)c(C)c3c1c2[C@@H](NC(=O)OCc1ccc(NC(=O)[C@H](CCCNC(N)=O)NC(=O)[C@@H](NC(=O)CCOCCOCCOCCOCCNC(=O)CCC(=O)N2Cc4ccccc4C#Cc4ccccc42)C(C)C)cc1)CC3 [LP2]
- EC50 [3]: 145 nM

Compound: CC[C@@]1(O)C(=O)OCc2c1cc1n(c2=O)Cc2c-1nc1cc(F)c(C)c3c1c2[C@@H](NC(=O)CO)CC3 [P12, Dxd, reference compound]
- EC50 (Homo sapiens, payload, HCT-15 cells plus verapamil, read-out: HCT-15 + verapamil EC50): 4.18 nM
- EC50 [1]: 7.99 nM

Compound: CC[C@@]1(O)C(=O)OCc2c1cc1n(c2=O)Cc2c-1nc1cc(F)c(C)c3c1c2[C@@H](NC(=O)[C@@H](N)CCCCNC(=O)OCc1ccc(NC(=O)[C@H](CCCNC(N)=O)NC(=O)[C@@H](NC(=O)CCOCCOCCOCCOCCNC(=O)COC2C#CCCCCC2)C(C)C)cc1)CC3 (stereo partly drawn) [LP11, {4-[(2S)-5-(carbamoylamino)-2-[(2S)-2-{1-[2-(cyclooct-2-yn-1-yloxy)acetamido]-3,6,9,12-tetraoxapentadecan-15-amido}-3-methylbutanamido]pentanamido]phenyl}methyl N-[(5S)-5-amino-5-{[(10S,23S)-10-ethyl-18-fluoro-10-hydroxy-19-methyl-5,9-dioxo-8-oxa-4,15-diazahexacyclo[14.7.1.0^2,^14.0^4,^13.0^6,^11.0^20,^24]tetracosa-1,6(11),12,14,16,18,20(24)-heptaen-23-yl]carbamoyl}pentyl]carbamate]
- EC50 [3]: 208 nM

Compound: CC[C@@]1(O)C(=O)OCc2c1cc1n(c2=O)Cc2c-1nc1cc(F)c(C)c3c1c2[C@@H](NC(=O)CN)CC3 [P2, 2-Amino-N-[(10S,23S)-10-ethyl-18-fluoro-10-hydroxy-19-methyl-5,9-dioxo-8-oxa-4,15-diazahexacyclo[[14.7.1.0^2,^14.0^4,^13.0^6,^11.0^20,^24]]tetracosa-1,6(11),12,14,16,18,20(24)-heptaen-23-yl]acetamide]
- EC50 [1]: 61.9 nM
- EC50 [2]: 14.3 nM

Compound: CCc1c2c(nc3ccc(OC)cc13)-c1cc([C@@](O)(CC)C(=O)NCCN)c(COC(C)=O)c(=O)n1C2 [P18, {7-[(1 S)-1-[(2-Aminoethyl)carbamoyl]-1-hydroxypropyl]-12-ethyl-2-methoxy-9-oxo-9H,11H-indolizino[1,2-b]quinolin-8-yl}methyl acetate]
- EC50 [1]: 32.5 nM
- EC50 [2]: 32.8 nM

— US20230287138A1, “PROTEIN-DRUG CONJUGATES COMPRISING CAMPTOTHECIN ANALOGS AND METHODS OF USE THEREOF” (Regneron Pharmaceuticals, Inc., priority 2022, published 2023)
